# Test results as given in patent publication US9187453B2, “Heterocyclic compound” (Takeda Pharmaceutical Company Limited, priority 2012, dated 2015).
# Where a name gives a salt, the structure may show the parent alone.
# Molecular target: T1, Tyk2 (Homo sapiens, UniProt P29597)
# T1 construct: purchased Invitrogen
# Assay: Tyk2 enzyme inhibition test (LANCE method)
# Assay type: biochemical
# Conditions: compound 1 μM; Tyk2 (Invitrogen), ULight-JAK1 substrate, ATP; well without enzyme = 100% inhibition; read-out: Tyk2 enzyme inhibitory activity (%, 1 μM)
# Experimental: Tyk2 enzyme inhibitory activity of test compounds was measured by LANCE method (PerkinElmer). First, a test compound diluted with assay buffer (50 mM HEPES (pH=7.5), […], 1 mM EGTA, 2 mM DTT, 0.01% Tween20, 0.01% BSA) was added to 384-well plate at 2 μL each. Then, a Tyk2 (Invitrogen) solution and a fluorescence-labeled peptide substrate (ULight-JAK1, PerkinElmer) solution diluted with assay buffer at 375 ng/mL and 300 nM, respectively were added at 2 μL each. Then, enzyme reaction was started by adding 2 μL each of ATP solution prepared with assay buffer at 30 μM. After the reaction at room temperature for 1 hr, Detection Buffer (PerkinElmer) prepared to be 20 mM EDTA, 4 nM europium-labeled anti-phosphotyrosine antibody (PerkinElmer) was added at 6 μL each. After standing at room temperature for 1 hr, fluorescence intensity (excitation wavelength 340 nm, fluorescence wavelength 665 nm, delay time 100 microsecond) was measured by a plate reader, Envision (PerkinElmer). The inhibitory activity of each compound was calculated as relative value where fluorescence intensity of a well without enzyme is considered as 100% inhibition.
# T1 sequence (P29597 whole entry): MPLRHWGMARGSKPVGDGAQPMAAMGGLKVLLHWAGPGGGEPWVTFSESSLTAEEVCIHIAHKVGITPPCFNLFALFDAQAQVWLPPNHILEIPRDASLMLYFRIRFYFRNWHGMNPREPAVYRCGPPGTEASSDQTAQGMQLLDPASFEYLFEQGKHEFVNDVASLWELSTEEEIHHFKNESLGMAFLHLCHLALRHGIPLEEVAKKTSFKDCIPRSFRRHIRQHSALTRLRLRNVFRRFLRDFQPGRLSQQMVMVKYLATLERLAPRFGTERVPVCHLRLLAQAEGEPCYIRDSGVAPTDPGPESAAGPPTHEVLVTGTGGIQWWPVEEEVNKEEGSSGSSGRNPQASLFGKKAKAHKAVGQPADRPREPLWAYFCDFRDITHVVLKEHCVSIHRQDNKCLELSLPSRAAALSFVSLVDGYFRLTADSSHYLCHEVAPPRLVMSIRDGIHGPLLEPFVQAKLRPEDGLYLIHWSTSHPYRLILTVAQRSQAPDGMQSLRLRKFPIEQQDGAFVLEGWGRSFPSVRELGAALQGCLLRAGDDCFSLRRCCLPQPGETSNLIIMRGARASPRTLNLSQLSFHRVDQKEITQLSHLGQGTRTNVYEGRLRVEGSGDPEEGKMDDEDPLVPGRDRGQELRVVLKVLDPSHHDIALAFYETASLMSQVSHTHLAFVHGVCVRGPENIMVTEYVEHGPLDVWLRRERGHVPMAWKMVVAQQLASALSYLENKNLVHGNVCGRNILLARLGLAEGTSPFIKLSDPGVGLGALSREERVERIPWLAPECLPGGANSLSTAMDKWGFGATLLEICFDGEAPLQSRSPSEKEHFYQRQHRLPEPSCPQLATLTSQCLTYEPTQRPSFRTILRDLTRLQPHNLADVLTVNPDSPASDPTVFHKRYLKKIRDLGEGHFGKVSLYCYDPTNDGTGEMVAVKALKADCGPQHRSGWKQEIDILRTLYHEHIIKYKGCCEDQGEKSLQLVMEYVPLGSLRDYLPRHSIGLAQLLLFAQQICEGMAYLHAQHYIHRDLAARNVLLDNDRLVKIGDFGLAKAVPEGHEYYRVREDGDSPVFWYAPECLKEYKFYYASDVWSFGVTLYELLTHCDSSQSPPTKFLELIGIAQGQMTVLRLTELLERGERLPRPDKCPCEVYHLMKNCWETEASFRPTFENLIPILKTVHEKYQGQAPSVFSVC
row,SMILES,inhibition at 1 µM
1,"CNC(=O)Cn1cc(Nc2nccc(N3CC[C@@](C#N)(C(C)C)C3=O)n2)cn1 [Example 86, 2-(4-((4-((3S)-3-cyano-3-isopropyl-2-oxopyrrolidin-1-yl)pyrimidin-2-yl)amino)-1H-pyrazol-1-yl)-N-methylacetamide hydrochloride]",100%
2,"CCC1(CC)CCN(c2ccnc(Nc3cnn(C)c3)n2)C1=O [Example 10, 3,3-diethyl-1-(2-((1-methyl-1H-pyrazol-4-yl)amino)pyrimidin-4-yl)pyrrolidin-2-one hydrochloride]",97%
3,"CCC1(C#N)CCN(c2ccnc(NCC3CC3)n2)C1=O (centres unmarked) [Example 77, 1-(2-((cyclopropylmethyl)amino)pyrimidin-4-yl)-3-ethyl-2-oxopyrrolidine-3-carbonitrile]",22%
4,"CC(C)[C@]1(C#N)CCN(c2ccnc(Nc3cnn(CCC(=O)N(C)C)c3)n2)C1=O [Example 265, 3-(4-((4-((3S)-3-cyano-3-isopropyl-2-oxopyrrolidin-1-yl)pyrimidin-2-yl)amino)-1H-pyrazol-1-yl)-N,N-dimethylpropanamide]",99%
5,"CNC(=O)Cn1cc(Nc2nccc(N3CC[C@@](C#N)(C4CC4)C3=O)n2)cn1 [Example 134, 2-(4-((4-((3S)-3-cyano-3-cyclopropyl-2-oxopyrrolidin-1-yl)pyrimidin-2-yl)amino)-1H-pyrazol-1-yl)-N-methylacetamide hydrochloride]",99%
6,"CC(C)[C@]1(C#N)CCN(c2ccnc(Nc3ccc(N4CCOCC4)cc3)n2)C1=O [Example 7, (3S)-3-isopropyl-1-(2-((4-(morpholin-4-yl)phenyl)amino)pyrimidin-4-yl)-2-oxopyrrolidine-3-carbonitrile]",100%
7,"CCC1(CC)CC(C)N(c2ccnc(Nc3cnn(C)c3)n2)C1=O (centres unmarked) [Example 33, 3,3-diethyl-5-methyl-1-(2-((1-methyl-1H-pyrazol-4-yl)amino)pyrimidin-4-yl)pyrrolidin-2-one hydrochloride]",97%
8,"CCC1(C#N)CCN(c2ccnc(NCc3ccco3)n2)C1=O (centres unmarked) [Example 72, 3-ethyl-1-(2-((2-furylmethyl)amino)pyrimidin-4-yl)-2-oxopyrrolidine-3carbonitrile]",20%
9,"CC(C)(CO)n1cc(Nc2nccc(N3CC[C@@](C#N)(C4CC4)C3=O)n2)cn1 [Example 103, (3S)-3-cyclopropyl-1-(2-((1-(1-hydroxy-2-methylpropan-2-yl)-1H-pyrazol-4-yl)amino)pyrimidin-4-yl)-2-oxopyrrolidine-3-carbonitrile]",100%
10,"Cn1cc(Nc2nccc(N3CCCC(C)(C)C3=O)n2)cn1 [Example 101, 3,3-dimethyl-1-(2-((1-methyl-1H-pyrazol-4-yl)amino)pyrimidin-4-yl) piperidin-2-one hydrochloride]",88%
11,"CC[C@]1(C#N)CCN(c2ccnc(Nc3ccc(N4CCOCC4)cc3)n2)C1=O [Example 4, (3R)-3-ethyl-1-(2-((4-(morpholin-4-yl)phenyl)amino)pyrimidin-4-yl)-2-oxopyrrolidine-3-carbonitrile]",100%
12,"Cn1cc(Nc2nccc(N3CCCC3=O)n2)cn1 [Example 12, 1-(2-((1-methyl-H-pyrazol-4-yl)amino)pyrimidin-4-yl)pyrrolidin-2-one]",51%
13,"CCC1(C#N)CCN(c2ccnc(Nc3cnn(C)c3)n2)C1=O (centres unmarked) [Example 1, 3-ethyl-1-(2-((1-methyl-1H-pyrazol-4-yl)amino)pyrimidin-4-yl)-2-oxopyrrolidine-3-carbonitrile]",99%
14,"CC(C)[C@]1(C#N)CCN(c2ccnc(Nc3cnn(CC(N)=O)c3)n2)C1=O [Example 85, 2-(4-((4-((3S)-3-cyano-3-isopropyl-2-oxopyrrolidin-1-yl)pyrimidin-2-yl)amino)-1H-pyrazol-1-yl)acetamide hydrochloride]",100%
15,"N#C[C@@]1(C2CC2)CCN(c2ccnc(Nc3cnn(C4(CO)CC4)c3)n2)C1=O [Example 128, (3S)-3-cyclopropyl-1-(2-((1-(1-(hydroxymethyl)cyclopropyl)-1H-pyrazol-4-yl)amino)pyrimidin-4-yl)-2-oxopyrrolidine-3-carbonitrile]",100%
16,"CNC(=O)Cn1cc(Nc2nccc(N3CC[C@](C#N)(C4CC4)C3=O)n2)cn1 [Example 133, 2-(4-((4-((3R)-3-cyano-3-cyclopropyl-2-oxopyrrolidin-1-yl)pyrimidin-2-yl)amino)-1H-pyrazol-1-yl)-N-methylacetamide hydrochloride]",24%
17,"Cn1cc(Nc2ncc(F)c(N3CCC(C)(C)C3=O)n2)cn1 [Example 29, 1-(5-fluoro-2-((1-methyl-1H-pyrazol-4-yl)amino)pyrimidin-4-yl)-3,3-dimethylpyrrolidin-2-one]",91%
18,"CC(C)(C(N)=O)n1cc(Nc2nccc(N3CC[C@@](C#N)(C4CC4)C3=O)n2)cn1 [Example 109, 2-(4-((4-((3S)-3-cyano-3-cyclopropyl-2-oxopyrrolidin-1-yl)pyrimidin-2-yl)amino)-1H-pyrazol-1-yl)-2-methylpropanamide hydrochloride]",99%
19,"CC(C)[C@]1(C#N)CCN(c2ccnc(Nc3cnn(CC(=O)N(C)C)c3)n2)C1=O [Example 87, 2-(4-((4-((3S)-3-cyano-3-isopropyl-2-oxopyrrolidin-1-yl)pyrimidin-2-yl)amino)-1H-pyrazol-1-yl)-N,N-dimethylacetamide hydrochloride]",100%
20,"CCC1(C#N)CCN(c2ccnc(NCc3ccc(C#N)cc3)n2)C1=O (centres unmarked) [Example 61, 1-(2-((4-cyanobenzyl)amino)pyrimidin-4-yl)-3-ethyl-2-oxopyrrolidine-3-carbonitrile]",14%
21,"CCC1(CC)CCN(c2ccnc(Nc3ccccc3)n2)C1=O [Example 15, 1-(2-anilinopyrimidin-4-yl)-3,3-diethylpyrrolidin-2-one]",89%
22,"CCC1(CC#N)CCN(c2ccnc(Nc3cnn(C)c3)n2)C1=O (centres unmarked) [Example 31, (3-ethyl-1-(2-((1-methyl-1H-pyrazol-4-yl)amino)pyrimidin-4-yl)-2-oxopyrrolidin-3-yl)acetonitrile]",98%

# System: IL-23
# Assay: IL-23-induced IL-22 in rat auricle tissue
# Assay type: in vivo
# Conditions: 10 mg/kg, q.d., oral, 30 min before intradermal mouse IL-23 into right auricle; IL-22 in auricle tissue by ELISA about 24 hr later; mean of n=6
# Experimental: Recombinant mouse IL-23 (1 μg/20 μL/site) was intradermally administered into the right auricle of 7-8-week-old LEWEIS male rat. As control, phosphate buffered saline (PBS) which is a solvent was administered instead of IL-23. Then, a drug (the compound of Example 103) suspended in 0.5% methyl cellulose (MC) was orally administered 30 min before IL-23 administration, respectively. 0.5% MC was used as vehicle. The auricle tissues of 6 mm diameter were collected about 24 hr after IL-23 administration. Lysis buffer was added thereto, the tissues were crushed using beads, and centrifugalized, and the supernatant was collected. IL-22 in the tissues was measured using ELISA kit (R & D Systems). The result is shown below as a IL-23 inhibitory rate relative to vehicle. (mean of n=6)
row,SMILES,IL-23 inhibitory rate relative to vehicle
1,"CC(C)(CO)n1cc(Nc2nccc(N3CC[C@@](C#N)(C4CC4)C3=O)n2)cn1 [Example 103, (3S)-3-cyclopropyl-1-(2-((1-(1-hydroxy-2-methylpropan-2-yl)-1H-pyrazol-4-yl)amino)pyrimidin-4-yl)-2-oxopyrrolidine-3-carbonitrile]",79%
